A short description of test [1]: growth inhibition of apl2Δ yeast, dose response, selectivity assay for post-Golgi transport modulator project, S. cerevisiae, secondary screen, background strain comparison (AID 789). The settings on record: S. cerevisiae background (wild-type parent) strain growth inhibition.
The subject of test [2] is S. cerevisiae apl2Δ mutant growth inhibition. The description is as above.

The source made the active and inactive calls. The rule behind the calls is not given here. Bounds are passed on as bounds.

As for `Cn1c2ccc(Cl)cc2c2nc3ccccc3nc21`, the half-maximal inhibitory concentration (IC50) in test [1] was > 10 µM; in test [2], > 10 µM (inactive).
For `NC(=O)c1ccsc1NC(=O)c1nc(-c2ccccc2)n(-c2ccccc2)n1`, the IC50 in test [1] is > 10 µM; in test [2] it was > 10 µM (inactive).
Consider `O=C(NCC(c1cccnc1)N1CCN(c2ccccc2)CC1)c1ccc2c(c1)OCO2` (stereo unspecified), for which the figures for the IC50 in test [1] and in test [2] were > 10 µM and > 10 µM (inactive), respectively.
In the same order, the values of `Cc1ccc2nc(C)cc(OCC(=O)O)c2c1` are > 10 µM and > 10 µM (inactive).
For the compound `O=C(O)c1ccc(N2CCCCC2)cc1`, the IC50 in test [1] is > 10 µM; in test [2], > 10 µM (inactive).
Take `Cc1ccc(CSc2nc3ccccc3cc2C=O)cc1`: the IC50 is 2.1 µM in test [1] and 7.24 µM (inactive) in test [2].
`COc1ccc2nc(NCCCNC(=O)c3cc(OC)c(OC)c(OC)c3)c(C#N)cc2c1`: the IC50 was > 10 µM in test [1] and > 10 µM (inactive) in test [2].
For `Cc1ccc(S(=O)(=O)N2CCN(C3CCN(Cc4ccccc4)CC3)CC2)cc1`, in that order: > 10 µM and > 10 µM (inactive).
For `Cc1ccc(SC(=O)COc2ccc(C)c(C)c2)cc1`, in that order: > 10 µM and > 10 µM (inactive).
Consider `Cn1c(=O)cc(NCc2ccccc2)[nH]c1=O`, for which the IC50 in test [1] was > 10 µM; in test [2], > 10 µM (inactive).
With `Cc1ccc(S(=O)(=O)NC(CC(C)C)C(=O)Oc2ccc3c4c(c(=O)oc3c2)CCC4)cc1` (stereo unspecified), the values for the IC50 in test [1] and in test [2] were > 10 µM and > 10 µM (inactive), respectively.
For `O=[N+]([O-])c1ccc(N/N=C/c2c[nH]c3ccccc23)c(S(=O)(=O)Nc2ccc(Cl)cc2)c1`, in that order: 2.5 µM and 7.17 µM (inactive).
Consider `CC1CCCCC1NC(=O)CSc1nnnn1-c1ccccc1` (stereo unspecified), for which the concentration for half-maximal inhibition (IC50) in test [1] was > 10 µM; in test [2], > 10 µM (inactive).
Consider `COc1ccc2c(c1)C(C)=CC(C)(C)N2C(=O)CSc1nnc(-c2ccc(C)cc2)o1`, for which the IC50 is > 10 µM in test [1] and > 10 µM (inactive) in test [2].
For the compound `Cc1ccc(S(=O)(=O)N(CC(=O)N2CCC(C(N)=O)CC2)c2cccc(C(F)(F)F)c2)cc1`, the half-inhibitory concentration (IC50) is > 10 µM in test [1] and > 10 µM (inactive) in test [2].
For `CC(=O)Nc1ccccc1NS(=O)(=O)c1ccc(Cl)cc1`, in that order: > 10 µM and > 10 µM (inactive).
For `O=Cc1cc2ccccc2nc1SCc1ccc(Cl)cc1`, in that order: > 10 µM and > 10 µM (inactive).
As for `O=C1CN(C(=O)CSc2nnc(-c3ccccc3)n2Cc2ccc3c(c2)OCO3)c2ccccc2N1`, the IC50 in test [1] is > 10 µM; in test [2] it was > 10 µM (inactive).
As to `CCN1C(=O)c2ccc(C(=O)NCc3ccccc3)cc2C1=O`, the IC50 in test [1] is > 10 µM; in test [2] it was > 10 µM (inactive).
Take `c1ccc(Nc2cc(-c3ccccc3)nc3ncnn23)cc1`: the concentration for half-maximal inhibition (IC50) in test [1] is > 10 µM; in test [2], > 10 µM (inactive).
Regarding `COc1ccc(CN(C(=O)Cc2cccs2)C(C(=O)NC2CCCC2)c2ccncc2)cc1` (stereo unspecified), the IC50 is > 10 µM in test [1] and > 10 µM (inactive) in test [2].
For `CCCn1nc([N+](=O)[O-])c(C(C#N)c2nc3ccccc3s2)c(Cl)c1=O` (stereo unspecified), the 50% inhibitory concentration (IC50) in test [1] was 2.16 µM; in test [2], 13.7 µM (inactive).
For `COc1cccc(OCCCCN2CC(C)OC(C)C2)c1` (stereo unspecified), the IC50 in test [1] is > 10 µM; in test [2] it was > 10 µM (inactive).
For the compound `COc1ccc(/C=C2\SC(=S)N(NC(=O)c3csc4c3CCCC4)C2=O)cc1`, the IC50 in test [1] is > 10 µM; in test [2], > 10 µM (inactive).
For `Cc1cc(C)nc(N/N=C/C(Cl)=C/c2ccccc2)n1`, in that order: > 10 µM and > 10 µM (inactive).
For `O=C(Nc1nnc(-c2ccc(Cl)cc2)o1)c1ccccc1Br`, in that order: 13.1 µM and > 10 µM (inactive).
Turning to `Cc1cc(Cl)cc(C)c1OCCCCN1CCOCC1`, the half-inhibitory concentration (IC50) in test [1] was > 10 µM; in test [2], > 10 µM (inactive).
Take `O=C(Nc1nc(-c2ccccn2)cs1)c1ncc(Cl)c(Cl)c1Cl`: the IC50 in test [1] is 13.3 µM; in test [2], 19.3 µM (inactive).
For `O=C(Cn1ncc2c3ccccc3n(Cc3ccccc3F)c2c1=O)N1CCC2(CC1)OCCO2`, in that order: > 10 µM and > 10 µM (inactive).
With `COc1ccc(Cl)cc1NC(=O)C(C)N1CCN(C/C=C/c2ccccc2)CC1` (stereo unspecified), the half-maximal inhibitory concentration (IC50) is 15 µM in test [1] and 20.4 µM (inactive) in test [2].
Regarding `Cc1ccc(C2N(c3ccc(Cl)c(Cl)c3)C(=O)C3CCCN32)o1` (stereo unspecified), the IC50 in test [1] was > 10 µM; in test [2], > 10 µM (inactive).
In the same order, the values of `CC(C)(C)n1nnnc1CN(Cc1cccnc1)Cc1ccccc1Cl` are > 10 µM and > 10 µM (inactive).
For `CCCCCOc1ccc(Cl)cc1CN1CCOCC1`, in that order: > 10 µM and > 10 µM (inactive).
Turning to `O=C(Cc1cccs1)Nc1nc2c(s1)CCCC2`, the IC50 was > 10 µM in test [1] and > 10 µM (inactive) in test [2].
In the case of `Cn1nnc2cc(C(=O)Nc3cccnc3)ccc21`, the IC50 was > 10 µM in test [1] and > 10 µM (inactive) in test [2].
In the case of `Cc1ccc(-n2cc3c(-c4cccc(Br)c4)nnc(C)c3n2)cc1`, the values for the IC50 in test [1] and in test [2] were 13.5 µM and 15.4 µM (inactive), respectively.
For `CCN(CC)CCn1nc(C)nc1-c1ccccc1O`, in that order: > 10 µM and > 10 µM (inactive).
For `Cc1cc(O)c(/C=N/Nc2ccc(Cl)cc2)c(=O)o1`, in that order: 4.69 µM and 9.39 µM (inactive).
For `CCc1ccc(N(C(=O)c2csnn2)C(C(=O)NC(C)(C)C)c2ccncc2)cc1` (stereo unspecified), the half-maximal inhibitory concentration (IC50) in test [1] is > 10 µM; in test [2], > 10 µM (inactive).
For `Cc1cccc2cc(C#N)c(NCCCn3ccnc3)nc12`, in that order: > 10 µM and > 10 µM (inactive).
Turning to `Cc1nnc(-c2cccc(Br)c2)c2cn(-c3ccccc3)nc12`, the IC50 in test [1] was > 10 µM; in test [2], > 10 µM (inactive).
In the case of `O=C(OCn1ncc(Br)c(Br)c1=O)c1ccc(F)cc1`, the half-maximal inhibitory concentration (IC50) in test [1] is 5.38 µM; in test [2] it was > 10 µM (inactive).
As for `O=C(NCCc1ccccc1)C1CCN(S(=O)(=O)N2CCCC2)CC1`, the concentration for half-maximal inhibition (IC50) is > 10 µM in test [1] and > 10 µM (inactive) in test [2].
For `O=S(=O)(NCC(c1cccnc1)N1CCN(c2ccccc2)CC1)c1cccs1` (stereo unspecified), in that order: > 10 µM and > 10 µM (inactive).
Take `O=C(OCn1nnc2ccccc2c1=O)c1cn(-c2ccccc2)nc1-c1cccnc1`: the IC50 in test [1] is > 10 µM; in test [2] it was > 10 µM (inactive).
In the same order, the values of `Clc1cc(Br)ccc1OCCOCCN1CCOCC1` are > 10 µM and > 10 µM (inactive).
As to `Cc1ccc(C2(C(F)(F)F)N=C3Sc4cc(C)cc(C)c4N3C(=O)N2)cc1` (stereo unspecified), the half-inhibitory concentration (IC50) in test [1] is 1.08 µM; in test [2], 1.73 µM (inactive).
For the compound `CCCC(=O)Nc1ccc(Cl)c(NC(=O)c2cccnc2Cl)c1`, the IC50 is > 10 µM in test [1] and > 10 µM (inactive) in test [2].
